In patent publication US10058495B2, “Method of making a skin care product” (The Procter & Gamble Company, priority 2014, dated 2018):
Residues, ends and D or L forms follow the SMILES beside them. *: point of attachment. Palmitoyl = CCCCCCCCCCCCCCCC(=O)*

Assay: In vivo skin penetration study #1 (Tape Stripping method), magnetic array vs finger
Design: species or system human
Conditions: for combined amount of Pal-KTTKS on tape strips, Mean: mean of the three strip groups; for combined amount of Pal-KTTKS on tape strips, Mean / combined amount of Pal-KTTKS on tape strips: in ng; for delivery of Pal-KTTKS, active compared to passive application: three test subjects
Experimental: An in vivo skin penetration study was conducted to establish the effect of using a skin care product of the present invention by applying a skin care composition comprising Pal-KTTKS (SEQ ID NO: 1) with an applicator comprising a magnetic array. The study compared the penetration of the Pal-KTTKS (SEQ ID NO: 1) in combination with a variety of magnetic arrays (active application) to the penetration of Pal-KTTKS (SEQ ID NO: 1) applied with a finger (passive application). Penetration of Pal-KTTKS (SEQ ID NO: 1) in this example is determined according to the Tape Stripping method. In this example, the level of Pal-KTTKS (SEQ ID NO: 1) present in the extract from each tape strip was measured using HPLC and the results normalized to the protein level measured on the tape strip.
This method provides a suitable means of measuring the amount of skin care active present in skin, and comparing active versus passive application of the skin care active. Two identical rectangular areas of 15 cm^2 are marked on the volar forearms of volunteers. A measured dose (approximately 30 mg) of the Pal-KTTKS (SEQ ID NO: 1) formulation is applied to the delineated areas using a screw actuated syringe. Active application is carried out on one of the delineated areas using the three-quarter profile of a purpose made applicator (e.g., an applicator presenting one of the magnetic arrays set forth in Table 2). Passive application is accomplished on the other delineated area using the tip of a finger in a sweeping motion identical to that of the active application. The formulation is spread evenly across the entire delineated region using a sweeping motion with a fixed speed of approximately 23 cm/s to […]. The application period is 30 seconds during which time visual inspection is used to ensure even distribution and absorption of the formulation by skin. The application area is then left uncovered for a further 30 minutes to ensure complete absorption. Tape strip samples may be collected and/or analyzed immediately after the complete absorption is ensured or after a waiting period (e.g., after multiple applications of the formulation over multiple hours or days).
The tape stripping procedure is carried out using 10 commercial pre-cut 22.1 mm tape stripping adhesive discs (e.g., D-SQUAME, available from Cuderm Corporation or equivalent) with an adhesive area of 3.8 cm^2. The 10 tape strips are applied sequentially to the same sampling site, which ideally enables each tape strip to obtain a sample from deeper within the stratum corneum than the tape strip that preceded it. A 22.1 mm diameter circular region is marked at the center of the application area. A tape stripping adhesive disc is placed over the marked area and even pressure applied using, for example, a neoprene roller, rolled ten times over the adhesive disc. The adhesive disc is removed from the skin surface in a single pulling motion using manual tweezers. To ensure even removal of the skin sample, subsequent discs are removed in a “north, south, east and west” orientation, which is within the skill of the ordinary artisan. Each adhesive disc is non-destructively analysed for protein content using a suitable instrument (e.g., SquameScan™ 850 instrument commercially available from Heiland Electronics Wetzlar, Germany, or equivalent). The adhesive disc is then immediately placed into a glass vial containing extraction solvent in preparation for subsequent analysis. Solvent extractions are conducted on each tape strip using conventional extraction methods, which are well known to those of ordinary skill in the art, and measuring the amount of Pal-KTTKS (SEQ ID NO: 1) present in the extract, for example, by high performance liquid chromatography (“HPLC”) and/or mass spectrometry.
The procedure is repeated for the remaining nine strips. An additional strip is obtained from outside the area of application of the skin care formulation to serve as a blank sample. […]

combined amount of Pal-KTTKS on tape strips, Mean (array 4, active, Average): 102.11 | combined amount of Pal-KTTKS on tape strips, Mean (array 4, active, subject 1, 1st test): 144.79 | combined amount of Pal-KTTKS on tape strips, Mean (array 4, active, subject 1, 2nd test): 96.97 | combined amount of Pal-KTTKS on tape strips, Mean (array 4, active, subject 2, 1st test): 122.02 | combined amount of Pal-KTTKS on tape strips, Mean (array 4, active, subject 2, 2nd test): 78.21 | combined amount of Pal-KTTKS on tape strips, Mean (array 4, active, subject 3 (2nd test of Table 7)): 68.57 | combined amount of Pal-KTTKS on tape strips (array 4, active, strips 2-4, Average): 108.81 | combined amount of Pal-KTTKS on tape strips (array 4, active, strips 2-4, subject 1, 1st test): 158.48 | combined amount of Pal-KTTKS on tape strips (array 4, active, strips 2-4, subject 1, 2nd test): 82.45 | combined amount of Pal-KTTKS on tape strips (array 4, active, strips 2-4, subject 2, 1st test): 129.33 | combined amount of Pal-KTTKS on tape strips (array 4, active, strips 2-4, subject 2, 2nd test): 94.10 | combined amount of Pal-KTTKS on tape strips (array 4, active, strips 2-4, subject 3 (2nd test of Table 7)): 79.66 | combined amount of Pal-KTTKS on tape strips (array 4, active, strips 5-7, Average): 107.95 | combined amount of Pal-KTTKS on tape strips (array 4, active, strips 5-7, subject 1, 1st test): 154.85 | combined amount of Pal-KTTKS on tape strips (array 4, active, strips 5-7, subject 1, 2nd test): 117.42 | combined amount of Pal-KTTKS on tape strips (array 4, active, strips 5-7, subject 2, 1st test): 121.51 | combined amount of Pal-KTTKS on tape strips (array 4, active, strips 5-7, subject 2, 2nd test): 73.41 | combined amount of Pal-KTTKS on tape strips (array 4, active, strips 5-7, subject 3 (2nd test of Table 7)): 72.59 | combined amount of Pal-KTTKS on tape strips (array 4, active, strips 8-10, Average): 89.57 | combined amount of Pal-KTTKS on tape strips (array 4, active, strips 8-10, subject 1, 1st test): 121.04 | combined amount of Pal-KTTKS on tape strips (array 4, active, strips 8-10, subject 1, 2nd test): 91.03 | combined amount of Pal-KTTKS on tape strips (array 4, active, strips 8-10, subject 2, 1st test): 115.22 | combined amount of Pal-KTTKS on tape strips (array 4, active, strips 8-10, subject 2, 2nd test): 67.12 | combined amount of Pal-KTTKS on tape strips (array 4, active, strips 8-10, subject 3 (2nd test of Table 7)): 53.45 | combined amount of Pal-KTTKS on tape strips, Mean (array 9, active, average of subjects): 165.57 | combined amount of Pal-KTTKS on tape strips, Mean (array 9, active, subject 1): 154.29 | combined amount of Pal-KTTKS on tape strips, Mean (array 9, active, subject 2): 201.48 | combined amount of Pal-KTTKS on tape strips, Mean (array 9, active, subject 3): 140.93 | combined amount of Pal-KTTKS on tape strips (array 9, active, strips 2-4, average of subjects): 263.02 | combined amount of Pal-KTTKS on tape strips (array 9, active, strips 2-4, subject 1): 177.13 | combined amount of Pal-KTTKS on tape strips (array 9, active, strips 2-4, subject 2): 440.14 | combined amount of Pal-KTTKS on tape strips (array 9, active, strips 2-4, subject 3): 171.79 | combined amount of Pal-KTTKS on tape strips (array 9, active, strips 5-7, average of subjects): 120.01 | combined amount of Pal-KTTKS on tape strips (array 9, active, strips 5-7, subject 1): 131.72 | combined amount of Pal-KTTKS on tape strips (array 9, active, strips 5-7, subject 2): 100.02 | combined amount of Pal-KTTKS on tape strips (array 9, active, strips 5-7, subject 3): 128.29 | combined amount of Pal-KTTKS on tape strips (array 9, active, strips 8-10, average of subjects): 113.67 | combined amount of Pal-KTTKS on tape strips (array 9, active, strips 8-10, subject 1): 154.03 | combined amount of Pal-KTTKS on tape strips (array 9, active, strips 8-10, subject 2): 64.27 | combined amount of Pal-KTTKS on tape strips (array 9, active, strips 8-10, subject 3): 122.70 | delivery of Pal-KTTKS, active compared to passive application (bi-directional magnetic array #9): significant enhanced delivery | combined amount of Pal-KTTKS on tape strips, Mean (passive, comparator of array 4, Average): 50.00 | combined amount of Pal-KTTKS on tape strips, Mean (passive, comparator of array 4, subject 1, 1st test): 59.18 | combined amount of Pal-KTTKS on tape strips, Mean (passive, comparator of array 4, subject 1, 2nd test): 42.29 | combined amount of Pal-KTTKS on tape strips, Mean (passive, comparator of array 4, subject 2, 1st test): 52.85 | combined amount of Pal-KTTKS on tape strips, Mean (passive, comparator of array 4, subject 2, 2nd test): 23.30 | combined amount of Pal-KTTKS on tape strips, Mean (passive, comparator of array 4, subject 3 (2nd test of Table 8)): 72.39 | combined amount of Pal-KTTKS on tape strips (passive, comparator of array 4, strips 2-4, Average): 70.42 | combined amount of Pal-KTTKS on tape strips (passive, comparator of array 4, strips 2-4, subject 1, 1st test): 79.94 | combined amount of Pal-KTTKS on tape strips (passive, comparator of array 4, strips 2-4, subject 1, 2nd test): 69.89 | combined amount of Pal-KTTKS on tape strips (passive, comparator of array 4, strips 2-4, subject 2, 1st test): 86.09 | combined amount of Pal-KTTKS on tape strips (passive, comparator of array 4, strips 2-4, subject 2, 2nd test): 28.02 | combined amount of Pal-KTTKS on tape strips (passive, comparator of array 4, strips 2-4, subject 3 (2nd test of Table 8)): 88.18 | combined amount of Pal-KTTKS on tape strips (passive, comparator of array 4, strips 5-7, Average): 49.50 | combined amount of Pal-KTTKS on tape strips (passive, comparator of array 4, strips 5-7, subject 1, 1st test): 65.58 | combined amount of Pal-KTTKS on tape strips (passive, comparator of array 4, strips 5-7, subject 1, 2nd test): 35.35 | combined amount of Pal-KTTKS on tape strips (passive, comparator of array 4, strips 5-7, subject 2, 1st test): 46.95 | combined amount of Pal-KTTKS on tape strips (passive, comparator of array 4, strips 5-7, subject 2, 2nd test): 23.11 | combined amount of Pal-KTTKS on tape strips (passive, comparator of array 4, strips 5-7, subject 3 (2nd test of Table 8)): 76.52 | combined amount of Pal-KTTKS on tape strips (passive, comparator of array 4, strips 8-10, Average): 30.08 | combined amount of Pal-KTTKS on tape strips (passive, comparator of array 4, strips 8-10, subject 1, 1st test): 32.01 | combined amount of Pal-KTTKS on tape strips (passive, comparator of array 4, strips 8-10, subject 1, 2nd test): 21.64 | combined amount of Pal-KTTKS on tape strips (passive, comparator of array 4, strips 8-10, subject 2, 1st test): 25.51 | combined amount of Pal-KTTKS on tape strips (passive, comparator of array 4, strips 8-10, subject 2, 2nd test): 18.76 | combined amount of Pal-KTTKS on tape strips (passive, comparator of array 4, strips 8-10, subject 3 (2nd test of Table 8)): 52.45 | combined amount of Pal-KTTKS on tape strips, Mean (passive, comparator of array 9, average of subjects): 47.80 | combined amount of Pal-KTTKS on tape strips, Mean (passive, comparator of array 9, subject 1): 42.29 | combined amount of Pal-KTTKS on tape strips, Mean (passive, comparator of array 9, subject 2): 28.71 | combined amount of Pal-KTTKS on tape strips, Mean (passive, comparator of array 9, subject 3): 72.39 | combined amount of Pal-KTTKS on tape strips (passive, comparator of array 9, strips 2-4, average of subjects): 62.79 | combined amount of Pal-KTTKS on tape strips (passive, comparator of array 9, strips 2-4, subject 1): 69.89 | combined amount of Pal-KTTKS on tape strips (passive, comparator of array 9, strips 2-4, subject 2): 30.29 | combined amount of Pal-KTTKS on tape strips (passive, comparator of array 9, strips 2-4, subject 3): 88.18 | combined amount of Pal-KTTKS on tape strips (passive, comparator of array 9, strips 5-7, average of subjects): 50.50 | combined amount of Pal-KTTKS on tape strips (passive, comparator of array 9, strips 5-7, subject 1): 35.35 | combined amount of Pal-KTTKS on tape strips (passive, comparator of array 9, strips 5-7, subject 2): 39.62 | combined amount of Pal-KTTKS on tape strips (passive, comparator of array 9, strips 5-7, subject 3): 76.52 | combined amount of Pal-KTTKS on tape strips (passive, comparator of array 9, strips 8-10, average of subjects): 30.11 | combined amount of Pal-KTTKS on tape strips (passive, comparator of array 9, strips 8-10, subject 1): 21.64 | combined amount of Pal-KTTKS on tape strips (passive, comparator of array 9, strips 8-10, subject 2): 16.23 | combined amount of Pal-KTTKS on tape strips (passive, comparator of array 9, strips 8-10, subject 3): 52.45 | delivery of Pal-KTTKS, active compared to passive application (uni-directional magnetic array #4): significant enhanced delivery
Structure (SMILES): CCCCCCCCCCCCCCCC(=O)N[C@@H](CCCCN)C(=O)N[C@H](C(=O)N[C@H](C(=O)N[C@@H](CCCCN)C(=O)N[C@@H](CO)C(=O)O)[C@@H](C)O)[C@@H](C)O [Pal-KTTKS, palmitoyl-lysine-threonine-threonine-lysine-serine] (Palmitoyl-KTTKS-OH; C-terminus assumed)
